Experimental data: publication PMC3919717 (PLoS ONE, 2014)

Tests used:
Conditions in all cases: 50 nM enzyme; BAEE 0.04-0.2 mg/ml; 37°C; native glycosylated enzyme
RV-FVPα = type: biochemical, Daboia russelii
RV-FVPδ = system: RV-FVPδ
RV-FVPγ = system: RV-FVPγ
RV-FVPβ = system: RV-FVPβ

Work on `CCOC(=O)[C@H](CCCNC(=N)N)NC(=O)c1ccccc1` [BAEE] yielded a Km (RV-FVPα) of 0.143 mg/mL, a Km (RV-FVPδ) of 0.159 mg/mL and a Km (RV-FVPγ) of 0.159 mg/mL. It also gave a Km (RV-FVPβ) of 0.156 mg/mL.
